Data taken from patent US20250296953A1, “3,4-THIAZOLO-STEROIDS AND METHODS OF MAKING AND USING THE SAME” (Arkansas State University - Jonesboro, priority 2018, published 2025).
Where two headings read alike, the source gives them in different places.

Tests used:
glioblastoma (SF-295) = test: NCI 60 five dose screen
gliosarcoma (SF-539) = test: NCI 60 five dose screen
NCI-H522 (NSCLC) = test: NCI 60 one dose screen; format: cell-based, human; details: Non-small Cell Lung Cancer
SF-295 = test: NCI 60 one dose screen; format: cell-based, human; details: one dose; CNS Cancer; SF-295
RPMI-8226 = test: NCI 60 five dose screen
HCT-15 (Colon Cancer) = test: NCI 60 one dose screen; format: cell-based, human
[1] = system: 60 different human tumor cell lines; details: for GI50 / TGI: five dose
[2] = RPMI-8226 (Leukemia), five dose
[3] = A549/ATCC (Non-small Cell Lung Cancer)
[4] = EKVX (Non-small Cell Lung Cancer)
[5] = HOP-62 (Non-small Cell Lung Cancer)
[6] = HOP-92 (Non-small Cell Lung Cancer)
[7] = MDA-MB-231/ATCC (Breast Cancer)
[8] = NCI-H23 (Non-small Cell Lung Cancer)
[9] = NCI-H226 (Non-small Cell Lung Cancer)
[10] = NCI-H322M (Non-small Cell Lung Cancer)
[11] = NCI-H460 (Non-small Cell Lung Cancer)
[12] = NCI-H522 (Non-small Cell Lung Cancer)

“(1S,2R,13R,14S,18S)-7-(3-fluoroanilino)-2,18-dimethyl-6-thia-8-azapentacyclo[11.7.0.02,10.05,9.014,18]icosa-5(9),7,10-trien-17-one [IIa.8]” showed a GI50 (glioblastoma (SF-295); SF-295 (CNS Cancer), five dose) of 1190 nM, a TGI (glioblastoma (SF-295); SF-295 (CNS Cancer), five dose) of 2.97E−6 and a GI50 (glioblastoma (SF-295); glioblastoma SF-295) of 1190 nM. It also gave a CC50 (glioblastoma (SF-295); read-out: LC50, SF-295 (CNS Cancer), five dose) of 7370 nM, a GI50 (gliosarcoma (SF-539); SF-539 (CNS Cancer), five dose) of 1340 nM and a TGI (gliosarcoma (SF-539); SF-539 (CNS Cancer), five dose) of 2.94E−6. The GI50 (gliosarcoma (SF-539); gliosarcoma SF-539) was 1340 nM, the CC50 (gliosarcoma (SF-539); read-out: LC50, SF-539 (CNS Cancer), five dose) was 6450 nM and the “Growth Percent” value (NCI-H522 (NSCLC)) was −43.73%. The “Growth Percent” value (SF-295) was −18.79%, the GI50 (RPMI-8226; [2]) was 859 nM and the TGI (RPMI-8226; [2]) was 3.90E−6. For the same substance, the “50% growth inhibition (GI50)” value (RPMI-8226; leukemia cell line RPMI-8226) was “submicromolar”, the CC50 (RPMI-8226; read-out: LC50, RPMI-8226 (Leukemia), five dose) was > 100000 nM and the “Growth Percent” value (HCT-15 (Colon Cancer)) was 6.88%. The CC50 [1] was > 100000 nM, the GI50 ([1]; 786-0 (Renal Cancer)) was 1430 nM and the TGI ([1]; 786-0 (Renal Cancer)) was 2.83E−6. For the same substance, the GI50 ([1]; A498 (Renal Cancer)) was 2160 nM, the TGI ([1]; A498 (Renal Cancer)) was 6.77E−6 and the GI50 [1, 3] was 2580 nM. It also gave a TGI [1, 3] of 7.50E−6, a GI50 ([1]; ACHN (Renal Cancer)) of 1780 nM and a TGI ([1]; ACHN (Renal Cancer)) of 3.24E−6. The GI50 ([1]; BT-549 (Breast Cancer)) was 1540 nM, the TGI ([1]; BT-549 (Breast Cancer)) was 3.62E−6 and the GI50 ([1]; CAKI-1 (Renal Cancer)) was 1990 nM. The TGI ([1]; CAKI-1 (Renal Cancer)) was 5.73E−6, the GI50 ([1]; CCRF-CEM (Leukemia)) was 1900 nM and the TGI ([1]; CCRF-CEM (Leukemia)) was >1.00E−4. The GI50 ([1]; COLO 205 (Colon Cancer)) was 2160 nM, the TGI ([1]; COLO 205 (Colon Cancer)) was 4.81E−6 and the GI50 ([1]; DU-145 (Prostate Cancer)) was 1930 nM. It also gave a TGI ([1]; DU-145 (Prostate Cancer)) of 4.87E−6, a GI50 [1, 4] of 2500 nM and a TGI [1, 4] of 1.85E−5. It also gave a GI50 ([1]; HCC-2998 (Colon Cancer)) of 3550 nM, a TGI ([1]; HCC-2998 (Colon Cancer)) of 1.46E−5 and a GI50 ([1]; HCT-15 (Colon Cancer)) of 1580 nM. For the same substance, the TGI ([1]; HCT-15 (Colon Cancer)) was 4.08E−6, the GI50 ([1]; HCT-116 (Colon Cancer)) was 1590 nM and the TGI ([1]; HCT-116 (Colon Cancer)) was 3.24E−6. The GI50 ([1]; HL-60(TB) (Leukemia)) was 2730 nM, the TGI ([1]; HL-60(TB) (Leukemia)) was 8.00E−6 and the GI50 [1, 5] was 2070 nM. The TGI [1, 5] was 5.34E−6, the GI50 [1, 6] was 2250 nM and the TGI [1, 6] was 4.17E−6. For the same substance, the GI50 ([1]; HS 578T (Breast Cancer)) was 3140 nM, the TGI ([1]; HS 578T (Breast Cancer)) was >1.00E−4 and the GI50 ([1]; HT29 (Colon Cancer)) was 1490 nM. The TGI ([1]; HT29 (Colon Cancer)) was 3.51E−6, the GI50 ([1]; IGROV1 (Ovarian Cancer)) was 1890 nM and the TGI ([1]; IGROV1 (Ovarian Cancer)) was 3.83E−6. It also gave a GI50 ([1]; K-562 (Leukemia)) of 1860 nM, a GI50 ([1]; KM12 (Colon Cancer)) of 3000 nM and a TGI ([1]; KM12 (Colon Cancer)) of 1.24E−5. It also gave a GI50 ([1]; LOX IMVI (Melanoma)) of 1670 nM, a TGI ([1]; LOX IMVI (Melanoma)) of 3.21E−6 and a GI50 ([1]; M14 (Melanoma)) of 2360 nM. The TGI ([1]; M14 (Melanoma)) was 7.23E−6, the GI50 ([1]; MALME-3M (Melanoma)) was 1940 nM and the TGI ([1]; MALME-3M (Melanoma)) was 5.04E−6. The GI50 ([1]; MCF7 (Breast Cancer)) was 1370 nM, the TGI ([1]; MCF7 (Breast Cancer)) was 3.28E−6 and the GI50 [1, 7] was 2110 nM. For the same substance, the TGI [1, 7] was 4.59E−6, the GI50 ([1]; MDA-MB-435 (Melanoma)) was 2740 nM and the TGI ([1]; MDA-MB-435 (Melanoma)) was 1.31E−5. For the same substance, the GI50 ([1]; MDA-MB-468 (Breast Cancer)) was 2010 nM, the TGI ([1]; MDA-MB-468 (Breast Cancer)) was 4.18E−6 and the GI50 ([1]; MOLT-4 (Leukemia)) was 1680 nM. The TGI ([1]; MOLT-4 (Leukemia)) was 2.83E−5, the GI50 [1, 8] was 2270 nM and the TGI [1, 8] was 9.08E−6. For the same substance, the GI50 [1, 9] was 2350 nM, the TGI [1, 9] was 5.70E−6 and the GI50 [1, 10] was 3600 nM. For the same substance, the TGI [1, 10] was 2.89E−6, the GI50 [1, 11] was 2520 nM and the TGI [1, 11] was 5.58E−6. For the same substance, the GI50 [1, 12] was 1630 nM, the TGI [1, 12] was 3.06E−6 and the GI50 ([1]; NCI/ADR-RES (Ovarian Cancer)) was 2810 nM. It also gave a TGI ([1]; NCI/ADR-RES (Ovarian Cancer)) of 1.72E−5, a GI50 ([1]; OVCAR-3 (Ovarian Cancer)) of 1720 nM and a TGI ([1]; OVCAR-3 (Ovarian Cancer)) of 3.30E−6. For the same substance, the GI50 ([1]; OVCAR-4 (Ovarian Cancer)) was 2710 nM, the TGI ([1]; OVCAR-4 (Ovarian Cancer)) was >1.00E−4 and the GI50 ([1]; OVCAR-5 (Ovarian Cancer)) was 2730 nM.
